Series [1] deals with Bod3-SPM (sphingomyelin) synthesis in HL60 cells. Put plainly: Sphingolipid metabolism from Bodipy-C3-ceramide: Bod3-SPM in HL60. Type of series: cell-based, Human. To be noted: HL60, 3 hours, 2.5 μM Bodipy-C3-ceramide; read-out: od 3-SPM (IC50 for reduction of Bod3-SPM, cell+medium). Here is the method:
(§1) In order to examine the effect of the different compounds on sphingolipids metabolism, different cell lines were incubated with increasing concentrations of different compounds of the invention in the presence of 2.5 μM Bodipy-C3-ceramide that was added to the culture medium as a solution in dimethylsulfoxide (not exceeding 0.1% DMSO of the final volium). After 3 hours, cells and medium were collected and centrifuged. Cells were next extracted with chloroform-methanol containing 2% acetic acid 1:1 (by volume) and the medium was shaken with an equal volume of chloroform-methanol, 1:1 (by volume). The phases were separated by centrifugation and the lower chloroform phase was collected. The solvents were evaporated and applied to thin layer chromatography silica gel plates (Whatman 4865-821) with a concentrating zone.
(§2) Plates were developed as follows: For medium: in chloroform-methanol-H2O, 75:25:4 by volume. For cells: plates were first developed with chloroform-methanol, 9:1, then dried and re-run in chloroform-methanol: H2O, 65:35:4.
(§3) Standards of Bodipy-C3-ceramide: Bodipy-C3-glucosylceramide (Bod3-GC) and Bodipy C3 sphingomyelin (Bod3-SPM) were used as markers. The fluorescence of the respective Bod3-SPM and Bod3-GC spots was quantified using a Fuji FLA-2000 scanner.

Series [2] deals with Bod3-SPM synthesis in MCF-NCi cells. In words: Sphingolipid metabolism: Bod3-SPM in MCF-NCi. Type of series: cell-based, Human. Conditions: 3 hours, 2.5 μM Bodipy-C3-ceramide, read-out: od 3-SPM (IC50 for reduction of Bod3-SPM). As for the experimental part:
as §1, §2, §3

Series [3] has as its system HL60 cells. Put plainly: Apoptosis in HL60 cells, propidium iodide flow cytometry (FACS). Type of series: cell-based, Human. As for the experimental part: The apoptotic effect of three different compounds was further examined on HL60 cells using a flow cytometry method. […] Washed cells were then treated with 5% Triton and stained with propidium iodide 0.5% mg in 0.1% sodium citrate pH 7.4. Analysis was performed using a Becton Dickinson Fluorescence Activated Cell Sorter (FACS).

The subject of series [4] is Bod3-GC (glucosylceramide) synthesis in HL60 cells. In words: Sphingolipid metabolism from Bodipy-C3-ceramide: Bod3-GC in HL60. Type of series: cell-based, Human. Conditions: HL60, 3 hours, 2.5 μM Bodipy-C3-ceramide; read-out: od 3-GC (IC50 for Bod3-GC reduction). As for the experimental part: as §1, §2, §3
Series [5] relates to HL60 cells. Put plainly: HL60 cell viability, viable cell count (trypan blue). To be noted: HL60, 2 days, FIG. 1, read-out: IC50, number of living (non-blue) cells. Type of series: cell-based, Human. Here is the method:
(§4) HL60: Human leukemia cell line (ATCC CCL-240).
The effect of AD-2646 on cell viability was analyzed by measuring cell mortality (viable cell count) and/or total protein quantity.
HL60 cells grown in RMPI plus 10% fetal calf serum, were incubated with increasing concentrations of (2R,3R)-2-(N-tetradecylamine)-1-(4-nitro-phenyl)-1,3-propanediol (AD-2646) in 6- or 24-well dishes. […] After 2 days the cells were collected, washed twice with saline, treated with trypan blue and the number of living (non-blue) cells was counted. FIG. 1 indicates an IC50 value of 5 μM.
Kinetic of the observed killing effect of the AD-2646 compound was next examined. HL60 cells were incubated with 40 μM of AD-2646 for 1, 3, 5 and 7 hours. Already after 1 hour a reduction of 60% of the viable cell number was observed.

The subject of series [6] is HL60 cells. Put plainly: HL60 total protein content (Bradford). Type of series: cell-based, Human. As for the experimental part:
as §4
The effect of the AD-2646 compound on cell viability was further supported when the total protein content was quantified. HL60 cells were incubated as described above, with different concentrations of AD-2646. After 2 days the cells were collected, washed twice with saline, dispersed and following a short pulsing with a probe-sonicator their protein content was quantified by the Bradford procedure. Similarly to the viable cell counting results, the protein measurements indicated an IC50 value of 5 μM.
To analyze whether the AD-2646 compound may mediate its effect on cell viability and on total protein content, in cooperation with other compounds, the cooperative effect of this compound and Taxol was next evaluated. HL60 cells were incubated for two days with 4 μM AD2646 in the presence or absence of 2 ng Taxol.
The effect of different compounds of the invention on cell viability was next evaluated by measuring total cell protein quantity. Different cell lines were incubated for two days in the presence of increasing concentrations of the different compounds of the present invention.

The subject of series [7] is Bod3-SPM synthesis in TSU-PR1 prostate cancer cells. Put plainly: Sphingolipid metabolism: Bod3-SPM in TSU-PR1. Type of series: cell-based. Conditions: TSU-PR1, 3 hours, FIG. 5; read-out: IC50 for reduction of Bod3-SPM. As for the experimental part:
as §1, §2, §3
The effect of AD-2646 on sphingolipid metabolism was further examined using TSU-PR1 prostate cancer cells.

Series [8] has as its system Swiss mice. Put plainly: In vivo toxicity of AD-2646, mice viability. As for the experimental part:
Six groups, each of 5 Swiss mice were injected, intra-peritoneally with solutions of AD-2646, at varying concentrations, each in a volume of 100 μl. Injections were performed on days 1, 2, 3, 4, and mice viability was tested (Table 5).

For series [9], the system named is neutral sphingomyelinase. In words: Neutral sphingomyelinase inhibition, HL60 sonicate. Type of series: biochemical, Human. To be noted: pH 7.4, 300 μM. As for the experimental part: (§5) N-hexyl-sphingosyl phosphorylcholine (AD-2144) was tested as to its inhibitory effect on sphingomyelinases, acidic (i.e., with an optimum at about pH 5) or neutral (with a pH optimum at about pH 7.4). For this purpose a sonicate of HL60 leukemic cells was used as enzyme source. Increasing concentrations of AD-2144 were dispersed by a mixture of fluorescent and non-fluorescent sphingomyelin (Bodipy-C12-SPM:SPM, 1:19), buffer and 0.25% Triton-X10O in a volume of 100 μl. For acid sphingomyelinase 0.4M acetate buffer pH 5.0 was used; for neutral sphingomyelinase 0.2M Tris buffer, pH 7.4 and 5 mM magnesium chloride. To 100 μl of these dispersions, 100 μl of HL60 cells sonicate were added. Incubation was 2-3 hours after which 0.8 ml of chloroform:methanol 2:1 were added, stirred and the lower, chloroform phase was collected, dried and applied to a thin layer chromatography plate. The plate was developed in a mixture of chloroform and methanol, 87:3. The fluorescence of the product, i.e., Bodipy-C12-ceramide, was quantified.

The target of series [10] is T1, acid sphingomyelinase (Homo sapiens, UniProt P17405).
T1 construct: a sonicate of HL60 leukemic cells was used as enzyme source; endogenous in cells; host or cells: HL60 leukemic cells (sonicate)
T1 sequence (P17405 47-631): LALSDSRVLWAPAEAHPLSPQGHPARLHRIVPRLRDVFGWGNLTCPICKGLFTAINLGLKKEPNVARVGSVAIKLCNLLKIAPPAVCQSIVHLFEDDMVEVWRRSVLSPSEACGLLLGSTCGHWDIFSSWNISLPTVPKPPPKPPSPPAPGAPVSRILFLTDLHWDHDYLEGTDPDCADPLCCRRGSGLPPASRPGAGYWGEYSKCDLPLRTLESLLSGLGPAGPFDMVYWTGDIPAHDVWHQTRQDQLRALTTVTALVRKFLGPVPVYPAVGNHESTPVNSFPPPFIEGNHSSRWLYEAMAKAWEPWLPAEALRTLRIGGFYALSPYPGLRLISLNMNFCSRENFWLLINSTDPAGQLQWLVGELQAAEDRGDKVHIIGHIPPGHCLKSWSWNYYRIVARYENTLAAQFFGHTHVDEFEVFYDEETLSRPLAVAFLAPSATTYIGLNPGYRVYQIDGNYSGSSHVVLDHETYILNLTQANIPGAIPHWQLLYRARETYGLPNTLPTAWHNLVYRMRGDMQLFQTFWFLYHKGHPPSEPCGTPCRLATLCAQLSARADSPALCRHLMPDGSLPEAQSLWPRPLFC
In words: Acid sphingomyelinase inhibition, HL60 sonicate. Type of series: biochemical. Conditions: pH 5.0, 300 μM. As for the experimental part: as §5

[11] abbreviates: HL60, two days, 4 μM AD-2646 plus 2 ng Taxol.

As a reminder, the IC50 is the midpoint of a concentration-inhibition curve.

Regarding `CCCCCCNc1ccc([C@@H](O)[C@@H](CO)NCCCCCC)cc1` [AD-2665, (2R,3R)-2-(N-hexylamine)-1-(4-N-hexylaminophenyl)-1,3-propanediol], the results for the IC50 in [1], in [2] and in series [4] were 4 µM, 7 µM and 5 µM, respectively. Moreover, the apoptotic cells in [3] (HL60, 30 min, 40 μM) was 5%; in series [3] (HL60, 3 hours, 10 μM), “about 8%”; in [3] (HL60, 3 hours, 20 μM) it was 26%; in series [3] (HL60, 24 hours, 10 μM), 25%.
With `CCCCCCCCCCCCCCN[C@H](CO)[C@H](O)c1ccc([N+](=O)[O-])cc1` [AD-2646, (2R,3R)-2-(N-tetradecylamine)-1-(4-nitrophenyl)-1,3-propanediol], the IC50 in series [1] is ~6 µM; in [5], 5 µM; in series [6] (HL60, 2 days, Bradford, read-out: IC50, protein content), 5 µM; in series [7], ~5 µM; in series [4], 12 µM. Besides, the Protein content in [6] (setting [11]) came to 93 µg. Besides, in series [6] (setting [11]), the “cooperative effect with Taxol on total protein quantity” value is recorded as “synergism”. Also, the apoptotic cells in series [3] (HL60, 3 hours, 10 μM) was 12%; in series [3] (HL60, 3 hours, 20 μM), 18%; in [3] (HL60, 3 hours, 40 μM), 26%; in series [3] (HL60, 24 hours, 10 μM), “about 50%”. For the same compound, the “No. of mice in each day” value in [8] (1 mg/kg i.p. days 1-4, groups of 5 mice, day 1) is on record as 5; in series [8] (1 mg/kg i.p. days 1-4, groups of 5 mice, day 2), 5; in [8] (1 mg/kg i.p. days 1-4, groups of 5 mice, day 3) it was 5; in series [8] (1 mg/kg i.p. days 1-4, groups of 5 mice, day 4), 5; in series [8] (1 mg/kg i.p. days 1-4, groups of 5 mice, day 5), 5; in series [8] (1 mg/kg i.p. days 1-4, groups of 5 mice, day 6) it was 5. Besides, the “No. of mice in each day” value in [8] (5 mg/kg i.p. days 1-4, groups of 5 mice, day 1) is reported as 5; in [8] (5 mg/kg i.p. days 1-4, groups of 5 mice, day 2), 5; in series [8] (5 mg/kg i.p. days 1-4, groups of 5 mice, day 3), 5; in series [8] (5 mg/kg i.p. days 1-4, groups of 5 mice, day 4), 5; in series [8] (5 mg/kg i.p. days 1-4, groups of 5 mice, day 5), 5; in series [8] (5 mg/kg i.p. days 1-4, groups of 5 mice, day 6), 5. Further, the “No. of mice in each day” value is 5 in series [8] (10 mg/kg i.p. days 1-4, groups of 5 mice, day 1); 5 in series [8] (10 mg/kg i.p. days 1-4, groups of 5 mice, day 2); 5 in [8] (10 mg/kg i.p. days 1-4, groups of 5 mice, day 3); 5 in series [8] (10 mg/kg i.p. days 1-4, groups of 5 mice, day 4); 5 in [8] (10 mg/kg i.p. days 1-4, groups of 5 mice, day 5); 5 in series [8] (10 mg/kg i.p. days 1-4, groups of 5 mice, day 6). Moreover, the “No. of mice in each day” value in [8] (25 mg/kg i.p. days 1-4, groups of 5 mice, day 2) was determined as 5; in series [8] (25 mg/kg i.p. days 1-4, groups of 5 mice, day 3), 5; in series [8] (25 mg/kg i.p. days 1-4, groups of 5 mice, day 4), 5; in series [8] (25 mg/kg i.p. days 1-4, groups of 5 mice, day 5), 5; in [8] (25 mg/kg i.p. days 1-4, groups of 5 mice, day 6) it was 5; in series [8] (50 mg/kg i.p. days 1-4, groups of 5 mice, day 1), 5. In [8] (50 mg/kg i.p. days 1-4, groups of 5 mice, day 2), the “No. of mice in each day” value is on record as 5.
Consider `CCCCCCCCCCCCC/C=C/[C@H](O)[C@@H](COP(=O)([O-])OCC[N+](C)(C)C)NCCCCCC` [AD-2144, L-Erythro Sphingosyl Phosphorylcholine-N-Hexyl], for which the “reduction in Bodipy-C12-ceramide” value in [9] and in [10] was “over 60%” throughout.

These data come from patent publication US6756504B2, “Sphingolipids” (Yissum Research Development Company of the Hebrew …, priority 2000, dated 2004).
